Experimental data from patent publication US20200392161A1, “SHP2 PHOSPHATASE INHIBITORS AND METHODS OF USE THEREOF” (Relay Therapeutics, Inc., priority 2018, published 2020).
Where a name gives a salt, the structure may show the parent alone.

Target: T1, SHP2 (Homo sapiens, UniProt Q06124)
T1 sequence (Q06124 1-593): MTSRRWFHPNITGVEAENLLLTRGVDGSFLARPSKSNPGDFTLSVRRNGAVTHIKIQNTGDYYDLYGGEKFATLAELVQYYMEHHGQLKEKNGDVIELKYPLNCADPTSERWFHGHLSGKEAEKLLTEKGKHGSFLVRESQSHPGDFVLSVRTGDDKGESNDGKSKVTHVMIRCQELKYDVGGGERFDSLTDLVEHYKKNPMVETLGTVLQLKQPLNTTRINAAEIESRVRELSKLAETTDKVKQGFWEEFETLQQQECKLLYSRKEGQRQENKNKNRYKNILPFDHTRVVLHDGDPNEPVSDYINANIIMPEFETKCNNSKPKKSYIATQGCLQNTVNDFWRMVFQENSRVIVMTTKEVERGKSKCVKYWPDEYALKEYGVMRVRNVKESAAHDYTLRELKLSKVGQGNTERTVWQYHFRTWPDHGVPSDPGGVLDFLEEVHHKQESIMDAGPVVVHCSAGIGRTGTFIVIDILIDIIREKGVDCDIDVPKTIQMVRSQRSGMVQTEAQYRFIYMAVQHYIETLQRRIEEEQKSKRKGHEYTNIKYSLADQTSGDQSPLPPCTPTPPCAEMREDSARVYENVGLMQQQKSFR
Test: SHP2 allosteric inhibition assay (DiFMUP prompt fluorescence)
Type: biochemical
Conditions: 0.25 nM SHP2, 0.5 μM IRS1_pY1172(dPEG8)pY1222 peptide, DiFMUP 100 μM
Excerpt: SHP2 Allosteric Inhibition Assay.
SHP2 is allosterically activated through binding of bis-tyrosyl-phosphorylated peptides to its Src Homology 2 (SH2) domains. The latter activation step leads to the release of the auto-inhibitory interface of SHP2, which in turn renders the SHP2 protein tyrosine phosphatase (PTP) active and available for substrate recognition and reaction catalysis. The catalytic activity of SHP2 was monitored using the surrogate substrate DiFMUP in a prompt fluorescence assay format.
The inhibitor dose response curves were analyzed using normalized IC50 regression curve fitting with control based normalization.

SMILES | IC50 (Table 3) [µM] | other results
CC1(CN)CCN(c2ncc(-c3ccccc3Cl)s2)C1 (centres unmarked) [Compound B3, (1-(5-(2-chlorophenyl)thiazol-2-yl)-3-methylpyrrolidin-3-yl)methanamine formate] | – | IC50 (Table 2): > 100 µM
CNCC1CCN(C(=O)Cc2csc(-c3ccc(Cl)cc3Cl)n2)C1 (centres unmarked) [Compound C45] | > 1000 | –
COc1ccc(-c2nc(CSc3nc4nc(C)cc(C)n4n3)cs2)cc1OC [Compound C32] | > 1000 | –
COc1ccc(-c2nc(CSc3nnc(-c4ccco4)o3)cs2)cc1OC [Compound C30] | > 1000 | –
CCC(=O)N(c1nnc(SCc2csc(-c3ccc(OC)c(OC)c3)n2)s1)C1CC1 [Compound C31] | > 1000 | –
COc1cc(-c2nc(CSc3nncn3C)cs2)ccc1O [Compound C20] | < 500 | –
CC1(N)CCN(c2cc(=O)n3c(-c4cccc(Cl)c4F)n[nH]c3n2)CC1 [Compound F3, 7-(4-amino-4-methylpiperidin-1-yl)-3-(3-chloro-2-fluorophenyl)-[1,2,4]triazolo[4,3-a]pyrimidin-5(1H)-one hydrochloride] | – | IC50 (Table 6): > 20 µM
Cn1c(N2CCC(C)(CN)CC2)nc2[nH]nc(N3CCc4ccccc43)c2c1=O [Compound F4, 6-(4-(aminomethyl)-4-methylpiperidin-1-yl)-3-(indolin-1-yl)-5-methyl-1H-pyrazolo[3,4-d]pyrimidin-4(5H)-one] | – | IC50 (Table 6): < 1 µM
COc1ccc(-c2nc(CSc3ncccn3)cs2)cc1OC [Compound C7] | 500 to 1000 | –
COCCn1cnnc1SCc1csc(-c2ccc(OC)c(OC)c2)n1 [Compound C15] | < 500 | –
CC1(CN)CCN(c2nn3c(N)c(-c4cccc(Cl)c4Cl)nc3s2)CC1 [Compound A9, 2-(4-(aminomethyl)-4-methylpiperidin-1-yl)-6-(2,3-dichlorophenyl)imidazo[2,1-b][1,3,4]thiadiazol-5-amine formate] | – | IC50 (Table 1): 5 to 20 µM
Cn1cnnc1SCc1csc(-c2ccc3c(c2)OCO3)n1 [Compound C26] | > 1000 | –
COc1cccc(-c2nc(CSc3nncs3)cs2)c1 [Compound C9] | 500 to 1000 | –
COc1ccc(-c2nc(CSc3nccn3C3CC3)cs2)cc1OC [Compound C12] | < 500 | –
C=C(C)CSc1nnc(SCc2csc(-c3ccc(OC)c(OC)c3)n2)s1 [Compound C33] | > 1000 | –
COc1cc(-c2nc(CSc3nnc(-c4ccccc4C)n3C)cs2)ccc1O [Compound C18] | 500 to 1000 | –

SMILES | IC50 (Table 3) [µM] | other results
COc1ccc(-c2nc(CSc3nnnn3C)cs2)cc1OC [Compound C6] | 500 to 1000 | –
Cc1nc(N2CCC(C)(CN)C2)sc1-c1ccccc1Cl (centres unmarked) [Compound B4, ((1-(5-(2-chlorophenyl)-4-methylthiazol-2-yl)-3-methylpyrrolidin-3-yl)methanamine formate] | – | IC50 (Table 2): > 100 µM
O=C(O)Cc1csc(-c2cccc(Cl)c2Cl)n1 [Compound C41] | > 1000 | –
Nc1c(-c2cccc(Cl)c2Cl)nc2sc(N3CCNCC3)nn12 [Compound A12, 6-(2,3-dichlorophenyl)-2-(piperazin-1-yl)imidazo[2,1-b][1,3,4]thiadiazol-5-amine] | – | IC50 (Table 1): > 20 µM
C[C@@H]1OCC2(CCN(c3nc4[nH]nc(N5CCc6ncccc65)c4c(=O)n3C)CC2)[C@@H]1N [Compound F11, 6-[(3S,4S)-4-amino-3-methyl-2-oxa-8-azaspiro[4.5]decan-8-yl]-5-methyl-3-{1H,2H,3H-pyrrolo[3,2-b]pyridin-1-yl}-1H,4H,5H-pyrazolo[3,4-d]pyrimidin-4-one formate] | – | IC50 (Table 6): 1 to 20 µM
NC1CCCN(C(=O)c2cnc(-c3ccc(C(F)(F)F)cc3)s2)CC1 (centres unmarked) [Compound C48] | > 1000 | –
CC1(CN)CCN(c2nn3cc(-c4cccc(Cl)c4Cl)nc3s2)CC1 [Compound A2, (1-(6-(2,3-dichlorophenyl)imidazo[2,1-b][1,3,4]thiadiazol-2-yl)-4-methylpiperidin-4-yl)methanamine formate] | – | IC50 (Table 1): 5 to 20 µM
Cc1ccc(-c2nc(C)c(C(=O)N3CCC(CN)C3)s2)c(C)c1 (centres unmarked) [Compound C47] | > 1000 | –
O=c1c2[nH]nc(-c3cccc(Cl)c3Cl)c2ncn1C1CCNCC1 [Compound F5, 3-(2,3-dichlorophenyl)-6-(piperidin-4-yl)-1H-pyrazolo[4,3-d]pyrimidin-7(6H)-one] | – | IC50 (Table 6): 1 to 20 µM
COc1ccccc1-c1nc(C(=O)N2CCCC(C(C)N)C2)cs1 (centres unmarked) [Compound C46] | > 1000 | –
COc1cccc(Nc2nnc(SCc3csc(-c4ccc(OC)c(OC)c4)n3)s2)c1 [Compound C39] | > 1000 | –
COc1cc(-c2nc(CN(C)c3ccc4c(c3)OCO4)cs2)ccc1O [Compound C11] | < 500 | –
O=C(O)c1csc(-c2cccc3ccccc23)n1 [Compound C2] | < 500 | –
O=C(O)c1csc(-c2ccccc2Cl)n1 [Compound C42] | > 1000 | –
Cn1c(N2CCC(C)(CN)CC2)nc2[nH]nc(N3CCCc4ncccc43)c2c1=O [Compound F1, 6-(4-(aminomethyl)-4-methylpiperidin-1-yl)-3-(3,4-dihydro-1,5-naphthyridin-1(2H)-yl)-5-methyl-1H-pyrazolo[3,4-d]pyrimidin-4(5H)-one, hydrochloride] | – | IC50 (Table 6): < 1 µM
Nc1c(-c2cccc(Cl)c2Cl)nc2sc(N3C[C@@H]4[C@@H](N)[C@@H]4C3)nn12 [Compound A3] | – | IC50 (Table 1): < 5 µM
